From ChEMBL document CHEMBL4152181, “Resolvins as proresolving inflammatory mediators in cardiovascular disease” (Eur J Med Chem, 2018)

Assay: Half life in air at 10 to 20 ug by HPLC analysis
Format: physicochemical

Row | half-life | Structure (SMILES)
1 | 1.5 h | CC[C@@H](O)/C=C/C=C\C/C=C\C/C=C\C=C\[C@@H](O)CCCC(=O)O
2 | 35 h | CC[C@@H](O)/C=C/C=C\C[C@H]1C[C@H]1C/C=C\C=C\[C@@H](O)CCCC(=O)O
3 | 35 h | CC[C@@H](O)/C=C/C=C\C[C@@H]1C[C@@H]1C/C=C\C=C\[C@@H](O)CCCC(=O)O
